Measured values reported in patent US12577587B2 (priority 2009, dated 2026).
“Also recorded” adds a separate entry of the source.

Assays:
Type in all cases: cell-based, human
KBM7 cells [1] = test system: KBM7 cells
KBM7 cells [2] = test system: KBM7 cells; remark: listed apart in the source
KBM7 cells [3] = test system: KBM7 cells; remark: listed apart in the source

Compound | infection efficiency (KBM7 cells [3]) | also measured
Cc1ccc(NC(=O)c2ccc(CN3CCN(C)CC3)cc2)cc1Nc1nccc(-c2cccnc2)n1 [Gleevec, imatinib] |  | sensitivity to Gleevec (apoptosis) (KBM7 cells [1]): very sensitive; also recorded: sensitive
TRAIL |  | Cell viability (KBM7 cells [2]): decreased dramatically
polybrene | 33% | 
protamine sulphate | 44% | 
